We go through 45 compounds from US12655127B2, “Fused ring compound as Wee-1 inhibitor” (WIGEN BIOMEDICINE TECHNOLOGY (SHANGHAI) CO., LTD., priority 2021, dated 2026).

The target in the experiment is recombinant protein Wee-1 (Homo sapiens, UniProt P30291). Description: Inhibition of enzymatic activity of recombinant protein Wee-1 (HTRF). The format is biochemical. The protocol:
The inhibitory effect of the compounds on the enzyme activity of recombinant protein Wee-1 was determined by HTRF. The procedures are as follows:
After DMSO or serially diluted compounds (up to 200 nM, 1:5 serially diluted) and recombinant proteins were co-incubated in a kinase buffer at 37° C. for 30 min Fluorescein-PolyGAT and ATP were added, and then the reaction was started by the addition of a substrate. After incubation at room temperature for 90 min, an antibody and a detection solution were added, and after further incubation at room temperature for 60 min, fluorescence values were detected (excitation wavelength: 340 nm, emission wavelengths: 495 and 520 nm). The 520 nm/495 nm fluorescence intensity ratio value was calculated, and compared with that of the DMSO group, and then the inhibition percentages and IC50 values of the compounds were calculated.
(In TR-FRET formats the signal depends on donor and acceptor labels being close together.)

The structures appear in SMILES notation.

recombinant protein Wee-1, sequence (P30291 whole entry): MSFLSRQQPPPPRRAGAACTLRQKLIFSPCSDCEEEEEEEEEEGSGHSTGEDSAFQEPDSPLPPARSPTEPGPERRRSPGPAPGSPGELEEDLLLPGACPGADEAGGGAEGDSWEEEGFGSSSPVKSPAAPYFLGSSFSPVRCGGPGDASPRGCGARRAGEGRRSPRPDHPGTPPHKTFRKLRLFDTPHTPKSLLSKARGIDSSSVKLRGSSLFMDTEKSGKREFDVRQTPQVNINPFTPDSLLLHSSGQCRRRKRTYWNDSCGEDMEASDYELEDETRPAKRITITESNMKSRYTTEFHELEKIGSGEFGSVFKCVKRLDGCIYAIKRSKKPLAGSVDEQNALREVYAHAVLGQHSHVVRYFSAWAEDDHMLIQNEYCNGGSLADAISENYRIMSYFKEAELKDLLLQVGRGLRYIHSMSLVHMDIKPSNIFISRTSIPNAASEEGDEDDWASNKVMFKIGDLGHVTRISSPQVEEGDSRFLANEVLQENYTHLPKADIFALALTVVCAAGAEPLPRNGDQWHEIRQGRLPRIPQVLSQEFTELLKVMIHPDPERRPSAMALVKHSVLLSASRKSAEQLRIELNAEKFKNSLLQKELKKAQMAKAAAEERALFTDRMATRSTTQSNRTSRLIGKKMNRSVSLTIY

Regarding `CN1Cc2cc(Nc3ncc(C#N)c(Nc4cccc(P(C)(C)=O)n4)n3)cc3c2[C@H](CCC3)C1` (single isomer, unassigned) [Compound 138], the 50% inhibitory concentration (IC50) was at most 10 nM.

As for `CN1Cc2cc(Nc3ncc(C#N)c(Nc4cccc(P(C)(C)=O)n4)n3)cc3c2[C@@H](CCC3)C1` (single isomer, unassigned) [Compound 139], the concentration for half-maximal inhibition (IC50) is at most 10 nM.

For the compound `CCN1Cc2cc(Nc3ncc(C#N)c(Nc4cccc(N=S(C)(C)=O)n4)n3)cc3c2C(CCC3)C1` (stereo not drawn) [Compound 7], the IC50 is at most 10 nM.

`CCN1Cc2cc(Nc3ncc(C#N)c(Nc4cccc(N=S(C)(C)=O)n4)n3)cc3c2[C@H](CCC3)C1` [Compound 8]: the IC50 was at most 10 nM.

For `CCN1Cc2cc(Nc3ncc(C#N)c(Nc4cccc(N=S(C)(C)=O)n4)n3)cc3c2[C@@H](CCC3)C1` [Compound 9], the IC50 was at most 10 nM.

In the case of `CC(C)N1Cc2cc(Nc3ncc(C#N)c(Nc4cccc(N=S(C)(C)=O)n4)n3)cc3c2C(CCC3)C1` (stereo not drawn) [Compound 10], the IC50 was at most 10 nM.

For the compound `CC(C)N1Cc2cc(Nc3ncc(C#N)c(Nc4cccc(N=S(C)(C)=O)n4)n3)cc3c2[C@H](CCC3)C1` [Compound 11], the IC50 is at most 10 nM.

In the case of `CC(C)N1Cc2cc(Nc3ncc(C#N)c(Nc4cccc(N=S(C)(C)=O)n4)n3)cc3c2[C@@H](CCC3)C1` [Compound 12], the IC50 is at most 10 nM.

As to `CS(C)(=O)=Nc1cccc(Nc2nc(Nc3cc4c5c(c3)CN(C3CC3)CC5CCC4)ncc2C#N)n1` (stereo not drawn) [Compound 13], the 50% inhibitory concentration (IC50) was at most 10 nM.

For the compound `CS(C)(=O)=Nc1cccc(Nc2nc(Nc3cc4c5c(c3)CN(C3CC3)C[C@H]5CCC4)ncc2C#N)n1` [Compound 14], the IC50 is at most 10 nM.

Turning to `CS(C)(=O)=Nc1cccc(Nc2nc(Nc3cc4c5c(c3)CN(C3CC3)C[C@@H]5CCC4)ncc2C#N)n1` [Compound 15], the IC50 is at most 10 nM.

Turning to `CS(C)(=O)=Nc1cccc(Nc2nc(Nc3cc4c5c(c3)CN(CCO)CC5CCC4)ncc2C#N)n1` (stereo not drawn) [Compound 16], the IC50 was at most 10 nM.

As for `CN(C)CCN1Cc2cc(Nc3ncc(C#N)c(Nc4cccc(N=S(C)(C)=O)n4)n3)cc3c2C(CCC3)C1` (stereo not drawn) [Compound 17], the IC50 is at most 10 nM.

On to `CS(C)(=O)=Nc1cccc(Nc2nc(Nc3cc4c5c(c3)CN(CC3CC3)CC5CCC4)ncc2C#N)n1` (stereo not drawn) [Compound 18], for which the IC50 was at most 10 nM.

With `CN1CC2CCCc3cc(Nc4ncc(C#N)c(Nc5cccc(N=S(C)(C)=O)n5)n4)cc(c32)C12CC2` (stereo not drawn) [Compound 19], the half-maximal inhibitory concentration (IC50) is at most 10 nM.

With `CN1CC2CCCc3cc(Nc4ncc(C#N)c(Nc5cccc(N=S(C)(C)=O)n5)n4)cc(c32)C1(C)C` (stereo not drawn) [Compound 20], the concentration for half-maximal inhibition (IC50) was at most 10 nM.

On to `CN1C[C@H]2CCCc3cc(Nc4ncc(C#N)c(Nc5cccc(N=S(C)(C)=O)n5)n4)cc(c32)C1(C)C` [Compound 21], for which the concentration for half-maximal inhibition (IC50) is at most 10 nM.

For `CN1C[C@@H]2CCCc3cc(Nc4ncc(C#N)c(Nc5cccc(N=S(C)(C)=O)n5)n4)cc(c32)C1(C)C` [Compound 22], the IC50 was at most 10 nM.

With `CN1Cc2cc(Nc3ncc(C#N)c(Nc4cccc(N=S(C)(C)=O)n4)n3)cc3c2C(CCC3)C12CC2` (stereo not drawn) [Compound 23], the IC50 is at most 10 nM.

With `CN1Cc2cc(Nc3ncc(C#N)c(Nc4cccc(N=S(C)(C)=O)n4)n3)cc3c2[C@H](CCC3)C1(C)C` [Compound 24], the IC50 is at most 10 nM.

As to `CN1Cc2cc(Nc3ncc(C#N)c(Nc4cccc(N=S(C)(C)=O)n4)n3)cc3c2[C@@H](CCC3)C1(C)C` [Compound 25], the half-maximal inhibitory concentration (IC50) was at most 10 nM.

As for `CN1Cc2cc(Nc3ncc(C#N)c(Nc4cccc(N=S(C)(C)=O)n4)n3)cc3c2C(C1)CC1(CC1)C3` (stereo not drawn) [Compound 26], the half-inhibitory concentration (IC50) was at most 10 nM.

Take `CN1Cc2cc(Nc3ncc(C#N)c(Nc4cccc(N=S(C)(C)=O)n4)n3)cc3c2C(C1)CC(C)(C)C3` (stereo not drawn) [Compound 27]: the IC50 is at most 10 nM.

On to `CN1Cc2cc(Nc3ncc(C#N)c(Nc4cccc(N=S(C)(C)=O)n4)n3)cc3c2C(C1)CC(F)(F)C3` (stereo not drawn) [Compound 28], for which the IC50 is at most 10 nM.

Turning to `CN1Cc2cc(Nc3ncc(C#N)c(Nc4cccc(N=S(C)(C)=O)n4)n3)cc3c2C(C1)C1(CC3)CC1` (stereo not drawn) [Compound 29], the IC50 is at most 10 nM.

In the case of `CN1Cc2cc(Nc3ncc(C#N)c(Nc4cccc(N=S(C)(C)=O)n4)n3)cc3c2C(C1)C(C)(C)CC3` (stereo not drawn) [Compound 30], the 50% inhibitory concentration (IC50) was at most 10 nM.

Take `CN1Cc2cc(Nc3ncc(C#N)c(Nc4cccc(N=S(C)(C)=O)n4)n3)cc3c2C(C1)C(F)(F)CC3` (stereo not drawn) [Compound 31]: the IC50 is at most 10 nM.

For the compound `CN1Cc2cc(Nc3ncc(C#N)c(Nc4cccc(N=S(C)(C)=O)n4)n3)cc3c2C(CCC32CC2)C1` (stereo not drawn) [Compound 32], the 50% inhibitory concentration (IC50) is at most 10 nM.

In the case of `CN1Cc2cc(Nc3ncc(C#N)c(Nc4cccc(N=S(C)(C)=O)n4)n3)cc3c2C(CCC3(C)C)C1` (stereo not drawn) [Compound 33], the IC50 was at most 10 nM.

Regarding `CN1Cc2cc(Nc3ncc(C#N)c(Nc4cccc(N=S(C)(C)=O)n4)n3)cc3c2C(CCC3(F)F)C1` (stereo not drawn) [Compound 34], the IC50 is at most 10 nM.

On to `CN1Cc2cc(Nc3ncc(C#N)c(Nc4cccc(N=S(C)(C)=O)n4)n3)cc3c2C(CC=C3)C1` (stereo not drawn) [Compound 35], for which the IC50 was at most 10 nM.

On to `CN1Cc2cc(Nc3ncc(C#N)c(Nc4cccc(N=S(C)(C)=O)n4)n3)cc3c2C(C=CC3)C1` (stereo not drawn) [Compound 36], for which the IC50 is at most 10 nM.

In the case of `CN1Cc2cc(Nc3ncc(C#N)c(Nc4cccc(N=S(C)(C)=O)n4)n3)cc3c2C(CC2CC32)C1` (stereo not drawn) [Compound 37], the 50% inhibitory concentration (IC50) is at most 10 nM.

On to `CN1Cc2cc(Nc3ncc(C#N)c(Nc4cccc(N=S(C)(C)=O)n4)n3)cc3c2C(C1)C1CC1C3` (stereo not drawn) [Compound 38], for which the half-inhibitory concentration (IC50) was at most 10 nM.

`CN1Cc2cc(Nc3ncc(C#N)c(Nc4cccc(N=S(C)(C)=O)n4)n3)cc3c2C2(CC2CC3)C1` (stereo not drawn) [Compound 39]: the IC50 was at most 10 nM.

On to `CN1Cc2nc(Nc3ncc(C#N)c(Nc4cccc(N=S(C)(C)=O)n4)n3)cc3c2C(CCC3)C1` (stereo not drawn) [Compound 40], for which the IC50 was at most 10 nM.

In the case of `Cc1c(Nc2ncc(C#N)c(Nc3cccc(N=S(C)(C)=O)n3)n2)cc2c3c1CN(C)CC3CCC2` (stereo not drawn) [Compound 41], the IC50 was at most 10 nM.

For `CN1Cc2c3c(cc(Nc4ncc(C#N)c(Nc5cccc(N=S(C)(C)=O)n5)n4)c2C2CC2)CCCC3C1` (stereo not drawn) [Compound 42], the concentration for half-maximal inhibition (IC50) is at most 10 nM.

For `CN1Cc2c(F)c(Nc3ncc(C#N)c(Nc4cccc(N=S(C)(C)=O)n4)n3)cc3c2C(CCC3)C1` (stereo not drawn) [Compound 43], the IC50 was at most 10 nM.

On to `COc1c(Nc2ncc(C#N)c(Nc3cccc(N=S(C)(C)=O)n3)n2)cc2c3c1CN(C)CC3CCC2` (stereo not drawn) [Compound 44], for which the half-inhibitory concentration (IC50) is at most 10 nM.

For `CN1Cc2cc(Nc3ncc(C#N)c(Nc4cccc(N=S(C)(C)=O)n4)n3)nc3c2C(CCC3)C1` (stereo not drawn) [Compound 45], the 50% inhibitory concentration (IC50) was at most 10 nM.

`Cc1c(Nc2ncc(C#N)c(Nc3cccc(N=S(C)(C)=O)n3)n2)cc2c3c1CCCC3CN(C)C2` (stereo not drawn) [Compound 46]: the IC50 was at most 10 nM.

`CN1Cc2cc(Nc3ncc(C#N)c(Nc4cccc(N=S(C)(C)=O)n4)n3)c(C3CC3)c3c2C(CCC3)C1` (stereo not drawn) [Compound 47]: the IC50 was at most 10 nM.

As to `CN1Cc2cc(Nc3ncc(C#N)c(Nc4cccc(N=S(C)(C)=O)n4)n3)c(F)c3c2C(CCC3)C1` (stereo not drawn) [Compound 48], the IC50 is at most 10 nM.

Turning to `CN1Cc2cc(Nc3ncc(C#N)c(Nc4cccc(N=S(C)(C)=O)n4)n3)cc3c2[C@H](CC3)C1` [Compound 51], the IC50 fell in the range of 10 to 50 nM.

The IC50 is the midpoint of a concentration-inhibition curve.
